Experimental findings from PubChem BioAssay AID1159565 (GlaxoSmithKline (GSK), 2015) are described below.

This experiment concerns T. cruzi-infected H9C2 cardiomyocytes, high-content imaging. Kind of experiment: anti-T. cruzi activity in infected cardiomyocytes – imaging, H9C2 host cardiomyocytes, host toxicity (AID 1159565).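 Note: infected cells incubated 72 h after plating.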
The mark [1] stands for this setting: measured here: H9C2 host cell toxicity.
[2] abbreviates: measured here: amastigotes per cell.

The source made the active and inactive calls. The rule behind the calls is not given here.

The IC50 is the concentration needed to halve the response being measured.

As for `COc1cnc2ccc(=O)n(CCN3CCC(NC/C=C/c4cc(F)ccc4F)CC3)c2c1`, the IC50 was 0.02 µM. In addition, the 50% inhibitory concentration (IC50) under setting [1] was 16 µM. This compound also came in with an IC50 under setting [2] of 0.01 µM.
Consider `C[C@@H](Oc1cc(-n2cnc3cc(N)ccc32)sc1C(N)=O)c1ccccc1Cl`, for which the half-inhibitory concentration (IC50) is 20 µM. Under setting [1], this compound had an IC50 of 1 µM. This compound also displayed an IC50 under setting [2] of 5 µM.
For `COc1ccc(C(=O)Nc2cc(C(F)(F)F)ccc2N2CCOCC2)c(OC)c1`, the 50% inhibitory concentration (IC50) was 0.79 µM. Besides, the half-maximal inhibitory concentration (IC50) under setting [1] was above 50 µM. In addition, the half-inhibitory concentration (IC50) under setting [2] amounted to 0.32 µM.
Turning to `COc1ccc(C(=O)Nc2c(C)nn(COc3cccc(C(F)(F)F)c3)c2C)cc1`, the IC50 was 40 µM. Under setting [1], the IC50 is above 50 µM. Further, the IC50 under setting [2] came to 25 µM.
Turning to `O=C(Nc1cccc(F)c1)N1CCC(Oc2cccc(-c3cccnc3)c2)CC1`, the half-maximal inhibitory concentration (IC50) is 0.63 µM. Also, the IC50 under setting [1] stood at 25 µM. This compound also came in with an IC50 under setting [2] of 0.5 µM.
For `NC(N)=Nc1nc(-c2ccc(NC(N)=NCCN3CCCC3)cc2)cs1`, in that order: > 50 µM (inactive), above 50 µM and above 50 µM.
For the compound `COc1cc(Nc2nccc(Nc3onc(C)c3C)n2)cc(S(=O)(=O)C2CCOCC2)c1`, the concentration for half-maximal inhibition (IC50) is 25 µM. The compound further showed an IC50 under setting [1] of 10 µM. The same compound showed an IC50 under setting [2] of 13 µM.
The matching figures for `Cc1ccc2nc(N(Cc3cccnc3)C(=O)CCc3ccccc3)sc2c1`: 0.04 µM, above 50 µM and 0.032 µM.
For the compound `CC(=O)Nc1cccc(Nc2ncnc3nc[nH]c23)c1`, the concentration for half-maximal inhibition (IC50) is 40 µM. Besides, under setting [1], the IC50 was above 50 µM. Under setting [2], this compound registered a half-maximal inhibitory concentration (IC50) of 25 µM.
On to `CCN(CC)c1ncc(C(=O)c2ccc([N+](=O)[O-])o2)s1`, for which the IC50 is 13 µM. Also, the 50% inhibitory concentration (IC50) under setting [1] came to 5 µM. For the same compound, the half-maximal inhibitory concentration (IC50) under setting [2] amounted to 7.9 µM.
For `COc1ccc(-c2cnc(C)o2)cc1S(=O)(=O)Nc1ccc(C)cc1C`, in that order: 3.2 µM, above 50 µM and 3.2 µM.
As for `Cc1cc(Br)sc1CNCCCNc1cc(=O)c2ccccc2[nH]1`, the IC50 was 0.79 µM. The IC50 under setting [1] worked out at 25 µM. Under setting [2], the IC50 amounted to 0.5 µM.
Consider `Cc1ccnc(NS(=O)(=O)c2ccc(NC(=O)c3ccc([N+](=O)[O-])s3)cc2)n1`, for which the IC50 was 10 µM. The compound further returned an IC50 under setting [1] of 5 µM. Besides, the half-maximal inhibitory concentration (IC50) under setting [2] turned out to be 6.3 µM.
In the case of `CCn1nccc1CN(C)C(=O)C=Cc1ccc(Cl)cc1`, the IC50 is 0.32 µM. Under setting [1], this compound yielded an IC50 above 50 µM. Besides, the IC50 under setting [2] is 0.32 µM.
Take `COc1ccc(C2CC(c3ccccc3Cl)=NN2C(=O)CNC(=O)C2CCCC2)cc1` (stereo not given): the 50% inhibitory concentration (IC50) is 3.2 µM. Further, under setting [1], the IC50 is above 50 µM. Under setting [2], this compound had a half-maximal inhibitory concentration (IC50) of 2 µM.
As to `COc1ccccc1-n1c(SCC(=O)Nc2ccc3c(c2)OCO3)nc2c(c1=O)SCC2`, the concentration for half-maximal inhibition (IC50) was 16 µM. Also, the half-inhibitory concentration (IC50) under setting [1] was above 50 µM. For the same compound, the concentration for half-maximal inhibition (IC50) under setting [2] came to 7.9 µM.
Turning to `Cc1ccccc1CNC(=O)CN(Cc1ccccn1)Cc1ccccn1`, the half-inhibitory concentration (IC50) was 16 µM. The IC50 under setting [1] was above 79 µM. Also, the half-inhibitory concentration (IC50) under setting [2] came out at 6.3 µM.
On to `COc1ccc(CN2C(=O)C(O)(CC(=O)c3ccncc3)c3cc(Br)ccc32)cc1OC` (stereo not given), for which the IC50 was 25 µM. The compound also came in with an IC50 under setting [1] of 2 µM. The IC50 under setting [2] stood at 13 µM.
Turning to `c1ccc(CCNCc2cncc3nc(-c4cnccn4)n(C4CCCCC4)c23)cc1`, the half-inhibitory concentration (IC50) was 0.13 µM. Moreover, the IC50 under setting [1] is above 50 µM. This compound also yielded a concentration for half-maximal inhibition (IC50) under setting [2] of 0.13 µM.
`O=C(Nc1nc2cc(Cl)ccc2o1)c1cccc(Cl)c1`: the IC50 is 0.79 µM. This compound gave a half-inhibitory concentration (IC50) under setting [1] of 2.5 µM. This compound also had a 50% inhibitory concentration (IC50) under setting [2] of 0.63 µM.
For the compound `COc1ccc(S(=O)(=O)Nc2ccccc2OC)cc1NC(=O)CCCc1c[nH]c2ccccc12`, the IC50 was 1.3 µM. Under setting [1], this compound displayed a half-maximal inhibitory concentration (IC50) above 50 µM. Besides, the IC50 under setting [2] was found to be 1 µM.
With `Cc1cc(C)cc(NS(=O)(=O)c2cc(-c3cc(C)[nH]n3)ccc2C)c1`, the IC50 is 1.6 µM. Also, the IC50 under setting [1] was 32 µM. The IC50 under setting [2] turned out to be 1.3 µM.
As to `CNc1nc(C)nc(N2CCc3cc(C(=O)NCc4ccc(-c5ccn[nH]5)cc4Cl)ccc32)n1`, the IC50 was > 50 µM (inactive). The compound further showed an IC50 under setting [1] of 20 µM. Besides, under setting [2], the IC50 is above 50 µM.
The matching figures for `Cc1cn[nH]c1C1CCCN(Cc2nc3ccccc3n2C)C1` (stereo not given): 20 µM, above 50 µM and 10 µM.
For the compound `COc1ccc(C(=O)[C@H]2C[C@@H]2CN(Cc2ccccn2)Cc2ccccn2)cc1`, the IC50 was 1.6 µM. The half-maximal inhibitory concentration (IC50) under setting [1] was determined as 25 µM. Moreover, the 50% inhibitory concentration (IC50) under setting [2] came to 1 µM.
Consider `CN(C)S(=O)(=O)c1ccc(Cl)c(C(=O)Nc2nc(-c3ccccn3)cs2)c1`, for which the IC50 is 2 µM. Further, the half-inhibitory concentration (IC50) under setting [1] came out at 6.3 µM. Besides, the IC50 under setting [2] was 1.3 µM.
As for `C[C@@H](Oc1cc(-n2cnc3ccc(C(O)CO)cc32)sc1C(N)=O)c1ccccc1C(F)(F)F` (stereo not given in full), the IC50 was 20 µM. This compound also yielded a concentration for half-maximal inhibition (IC50) under setting [1] of 0.63 µM. Under setting [2], this compound had an IC50 of 16 µM.
For the compound `Cc1ccc(NC(C)C(=O)Nc2ccc(C#N)cc2)cc1S(=O)(=O)N1CCCCC1` (stereo not given), the concentration for half-maximal inhibition (IC50) is 7.9 µM. The compound also had a concentration for half-maximal inhibition (IC50) under setting [1] above 50 µM. Besides, under setting [2], the IC50 amounted to 7.9 µM.
As for `COc1ccc(C2CC(c3ccccc3Cl)=NN2C(=O)CNC(=O)C2CCC2)cc1` (stereo not given), the IC50 is 1.6 µM. Also, the IC50 under setting [1] is above 50 µM. This compound showed a half-inhibitory concentration (IC50) under setting [2] of 1 µM.
For `O=C(NC(CO)c1ccc(F)cc1)c1ccc(-c2c[nH]c3ncccc23)s1` (stereo not given), in that order: 16 µM, 4 µM and 13 µM.
For `CN(Cc1cc2ccccc2s1)c1ncc2c(N)nc(N)nc2n1`, in that order: 3.2 µM, 20 µM and 0.79 µM.
For the compound `COc1ccc(C2C3CCCCC3(O)CCN2CC(=O)Nc2ccc(Cl)cc2Cl)cc1` (stereo not given), the 50% inhibitory concentration (IC50) was 1.3 µM. This compound displayed a half-maximal inhibitory concentration (IC50) under setting [1] of 20 µM. Further, under setting [2], the IC50 is 0.79 µM.
As to `CC(=O)NCCNc1cc(-c2ccnc(Nc3cccc(Cl)c3)n2)ccn1`, the IC50 is 1.6 µM. Further, the IC50 under setting [1] came to 0.4 µM. The 50% inhibitory concentration (IC50) under setting [2] amounted to 0.16 µM.
Take `CCCn1c(NC(=O)Cc2ccc(Cl)cc2)nc2ccccc21`: the concentration for half-maximal inhibition (IC50) was 2 µM. Besides, the IC50 under setting [1] is above 50 µM. This compound yielded an IC50 under setting [2] of 1.3 µM.
With `CC(Cn1ccnc1)NC(=O)C=Cc1ccc(Cl)cc1` (stereo not given), the IC50 is 1 µM. This compound also came in with an IC50 under setting [1] above 50 µM. The compound further gave an IC50 under setting [2] of 0.63 µM.
Consider `CCOc1ccccc1C(=O)Nc1nnc(-c2ccc3c(c2)OCO3)s1`, for which the IC50 was 0.079 µM. The half-maximal inhibitory concentration (IC50) under setting [1] was above 50 µM. For the same compound, the concentration for half-maximal inhibition (IC50) under setting [2] was 0.063 µM.
The matching figures for `Nc1ncnc2c1ncn2[C@@H]1O[C@H](CO)C[C@H]1O`: 2 µM, 5 µM and 1.3 µM.
The matching figures for `CN(Cc1nc2ccc(C(=O)NCC3CCCCC3)cc2[nH]1)C1CCCc2cccnc21` (stereo not given): 0.63 µM, 5 µM and 0.32 µM.
For `CC1=C(C(=O)Nc2ccc(Cl)cc2)C(c2ccncc2)n2ncc(C(=O)Nc3ccccc3)c2N1` (stereo not given), in that order: 0.02 µM, above 50 µM and 0.02 µM.
On to `CCOc1ccc(CC(=O)N2c3ccccc3CC2C(=O)NC)cc1` (stereo not given), for which the IC50 is > 50 µM (inactive). Besides, the 50% inhibitory concentration (IC50) under setting [1] is above 50 µM. The IC50 under setting [2] is above 50 µM.
